{"source": "PubChem BioAssay AID1845210", "about": "(Molecular Pharmacology Branch, DTP, NCI, 2023)", "test_system": "NCI-H226 complex tumor spheroids, viability", "assay": "Anticancer human tumor NCI-H226 cell line growth inhibition;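 on all read-outs here: spheroids exposed to compound for 7 days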;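 on viability, T/C: 100% = DMSO vehicle control viability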", "settings": "for IC50: curve of first compound; for viability, T/C: stronger effect = lower value", "in_short": "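Complex tumor spheroids combined malignant cells with endothelial cells and mesenchymal stem cells. DNA-damaging drugs and DNA repair inhibitors were tested alone and in combination, at half-log dilutions down from clinical Cmax (top 10 microM if Cmax unknown), 0.25% DMSO final.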"}
{"molecule": "O=C(c1cc(Cc2n[nH]c(=O)c3ccccc23)ccc1F)N1CCN(C(=O)C2CC2)CC1", "note": "+ COc1cc2c(cc1O)CCNC21CSC2c3c(OC(C)=O)c(C)c4c(c3C(COC1=O)N1C(O)C3Cc5cc(C)c(OC)c(O)c5C(C21)N3C)OCO4", "values": [{"measurement": "IC50", "setting": "second compound 30 pM", "result": "> 30000", "unit": "nM"}, {"measurement": "IC50", "setting": "second compound 94.9 pM", "result": "> 30000", "unit": "nM"}, {"measurement": "IC50", "setting": "second compound 0.0003 µM", "result": "> 30000", "unit": "nM"}, {"measurement": "IC50", "setting": "second compound 0.000949 µM", "result": "> 30000", "unit": "nM"}, {"measurement": "IC50", "setting": "second compound 0.003 µM", "result": "< 94.9", "unit": "nM"}, {"measurement": "viability, T/C", "setting": "second compound 30 pM, first compound 0.0949 µM", "result": 94.5, "unit": "%"}, {"measurement": "viability, T/C", "setting": "second compound 30 pM, first compound 0.3 µM", "result": 109, "unit": "%"}, {"measurement": "viability, T/C", "setting": "second compound 30 pM, first compound 0.949 µM", "result": 109, "unit": "%"}, {"measurement": "viability, T/C", "setting": "second compound 30 pM, first compound 3 µM", "result": 108, "unit": "%"}, {"measurement": "viability, T/C", "setting": "second compound 30 pM, first compound 9.49 µM", "result": 99.4, "unit": "%"}, {"measurement": "viability, T/C", "setting": "second compound 30 pM, first compound 30 µM", "result": 82.5, "unit": "%"}, {"measurement": "viability, T/C", "setting": "second compound 94.9 pM, first compound 0.0949 µM", "result": 109, "unit": "%"}, {"measurement": "viability, T/C", "setting": "second compound 94.9 pM, first compound 0.3 µM", "result": 95, "unit": "%"}, {"measurement": "viability, T/C", "setting": "second compound 94.9 pM, first compound 0.949 µM", "result": 105, "unit": "%"}, {"measurement": "viability, T/C", "setting": "second compound 94.9 pM, first compound 3 µM", "result": 101, "unit": "%"}, {"measurement": "viability, T/C", "setting": "second compound 94.9 pM, first compound 9.49 µM", "result": 99.4, "unit": "%"}, {"measurement": "viability, T/C", "setting": "second compound 94.9 pM, first compound 30 µM", "result": 102, "unit": "%"}, {"measurement": "viability, T/C", "setting": "second compound 0.0003 µM, first compound 0.0949 µM", "result": 115, "unit": "%"}, {"measurement": "viability, T/C", "setting": "second compound 0.0003 µM, first compound 0.3 µM", "result": 129, "unit": "%"}, {"measurement": "viability, T/C", "setting": "second compound 0.0003 µM, first compound 0.949 µM", "result": 126, "unit": "%"}, {"measurement": "viability, T/C", "setting": "second compound 0.0003 µM, first compound 3 µM", "result": 118, "unit": "%"}, {"measurement": "viability, T/C", "setting": "second compound 0.0003 µM, first compound 9.49 µM", "result": 112, "unit": "%"}, {"measurement": "viability, T/C", "setting": "second compound 0.0003 µM, first compound 30 µM", "result": 93.2, "unit": "%"}, {"measurement": "viability, T/C", "setting": "second compound 0.000949 µM, first compound 0.0949 µM", "result": 126, "unit": "%"}, {"measurement": "viability, T/C", "setting": "second compound 0.000949 µM, first compound 0.3 µM", "result": 112, "unit": "%"}, {"measurement": "viability, T/C", "setting": "second compound 0.000949 µM, first compound 0.949 µM", "result": 100, "unit": "%"}, {"measurement": "viability, T/C", "setting": "second compound 0.000949 µM, first compound 3 µM", "result": 103, "unit": "%"}, {"measurement": "viability, T/C", "setting": "second compound 0.000949 µM, first compound 9.49 µM", "result": 87.4, "unit": "%"}, {"measurement": "viability, T/C", "setting": "second compound 0.000949 µM, first compound 30 µM", "result": 49.5, "unit": "%"}, {"measurement": "viability, T/C", "setting": "second compound 0.003 µM, first compound 0.0949 µM", "result": 2.43, "unit": "%"}, {"measurement": "viability, T/C", "setting": "second compound 0.003 µM, first compound 0.3 µM", "result": 16.1, "unit": "%"}, {"measurement": "viability, T/C", "setting": "second compound 0.003 µM, first compound 0.949 µM", "result": 1.13, "unit": "%"}, {"measurement": "viability, T/C", "setting": "second compound 0.003 µM, first compound 3 µM", "result": 2.74, "unit": "%"}, {"measurement": "viability, T/C", "setting": "second compound 0.003 µM, first compound 9.49 µM", "result": 0.95, "unit": "%"}, {"measurement": "viability, T/C", "setting": "second compound 0.003 µM, first compound 30 µM", "result": 0.69, "unit": "%"}]}
{"molecule": "Cc1sc2c(c1C)C(c1ccc(Cl)cc1)=NC(CC(=O)Nc1ccc(O)cc1)c1nnc(C)n1-2", "note": "(stereo not given) + Cn1nnc2c(C(N)=O)ncn2c1=O", "values": [{"measurement": "IC50", "setting": "second compound 1 µM", "result": 959, "unit": "nM"}, {"measurement": "IC50", "setting": "second compound 3.16 µM", "result": 808, "unit": "nM"}, {"measurement": "IC50", "setting": "second compound 10 µM", "result": 1000, "unit": "nM"}, {"measurement": "IC50", "setting": "second compound 31.6 µM", "result": 1270, "unit": "nM"}, {"measurement": "IC50", "setting": "second compound 100 µM", "result": 1570, "unit": "nM"}, {"measurement": "viability, T/C", "setting": "second compound 1 µM, first compound 0.00949 µM", "result": 83.4, "unit": "%"}, {"measurement": "viability, T/C", "setting": "second compound 1 µM, first compound 0.03 µM", "result": 85, "unit": "%"}, {"measurement": "viability, T/C", "setting": "second compound 1 µM, first compound 0.0949 µM", "result": 74.9, "unit": "%"}, {"measurement": "viability, T/C", "setting": "second compound 1 µM, first compound 0.3 µM", "result": 68.4, "unit": "%"}, {"measurement": "viability, T/C", "setting": "second compound 1 µM, first compound 0.949 µM", "result": 48.8, "unit": "%"}, {"measurement": "viability, T/C", "setting": "second compound 1 µM, first compound 3 µM", "result": 40.3, "unit": "%"}, {"measurement": "viability, T/C", "setting": "second compound 3.16 µM, first compound 0.00949 µM", "result": 79.2, "unit": "%"}, {"measurement": "viability, T/C", "setting": "second compound 3.16 µM, first compound 0.03 µM", "result": 78.7, "unit": "%"}, {"measurement": "viability, T/C", "setting": "second compound 3.16 µM, first compound 0.0949 µM", "result": 81.1, "unit": "%"}, {"measurement": "viability, T/C", "setting": "second compound 3.16 µM, first compound 0.3 µM", "result": 63.2, "unit": "%"}, {"measurement": "viability, T/C", "setting": "second compound 3.16 µM, first compound 0.949 µM", "result": 49.4, "unit": "%"}, {"measurement": "viability, T/C", "setting": "second compound 3.16 µM, first compound 3 µM", "result": 39.6, "unit": "%"}, {"measurement": "viability, T/C", "setting": "second compound 10 µM, first compound 0.00949 µM", "result": 90.6, "unit": "%"}, {"measurement": "viability, T/C", "setting": "second compound 10 µM, first compound 0.03 µM", "result": 78.3, "unit": "%"}, {"measurement": "viability, T/C", "setting": "second compound 10 µM, first compound 0.0949 µM", "result": 76.8, "unit": "%"}, {"measurement": "viability, T/C", "setting": "second compound 10 µM, first compound 0.3 µM", "result": 66.4, "unit": "%"}, {"measurement": "viability, T/C", "setting": "second compound 10 µM, first compound 0.949 µM", "result": 46.8, "unit": "%"}, {"measurement": "viability, T/C", "setting": "second compound 10 µM, first compound 3 µM", "result": 42.5, "unit": "%"}, {"measurement": "viability, T/C", "setting": "second compound 31.6 µM, first compound 0.00949 µM", "result": 87.1, "unit": "%"}, {"measurement": "viability, T/C", "setting": "second compound 31.6 µM, first compound 0.03 µM", "result": 80.2, "unit": "%"}, {"measurement": "viability, T/C", "setting": "second compound 31.6 µM, first compound 0.0949 µM", "result": 70.2, "unit": "%"}, {"measurement": "viability, T/C", "setting": "second compound 31.6 µM, first compound 0.3 µM", "result": 71, "unit": "%"}, {"measurement": "viability, T/C", "setting": "second compound 31.6 µM, first compound 0.949 µM", "result": 52, "unit": "%"}, {"measurement": "viability, T/C", "setting": "second compound 31.6 µM, first compound 3 µM", "result": 38.5, "unit": "%"}, {"measurement": "viability, T/C", "setting": "second compound 100 µM, first compound 0.00949 µM", "result": 92.7, "unit": "%"}, {"measurement": "viability, T/C", "setting": "second compound 100 µM, first compound 0.03 µM", "result": 80.2, "unit": "%"}, {"measurement": "viability, T/C", "setting": "second compound 100 µM, first compound 0.0949 µM", "result": 84.8, "unit": "%"}, {"measurement": "viability, T/C", "setting": "second compound 100 µM, first compound 0.3 µM", "result": 67.8, "unit": "%"}, {"measurement": "viability, T/C", "setting": "second compound 100 µM, first compound 0.949 µM", "result": 55.4, "unit": "%"}, {"measurement": "viability, T/C", "setting": "second compound 100 µM, first compound 3 µM", "result": 42.5, "unit": "%"}]}
